Test results published in patent publication US9840520B2, “Heterocyclic hydroxamic acids as protein deacetylase inhibitors and dual protein deacetylase-protein kinase inhibitors and methods of use thereof” (The Regents of the University of Colorado, A Body Corporate, priority 2014, dated 2017).

Key:
Type in all cases: cell-based
NCI-H460 = assay: NCI60 tumour cell line screen, NCI-H460; details: Homo sapiens; NCI-H460, Non-Small Cell Lung Cancer
NCI-H322M = assay: NCI60 tumour cell line screen, NCI-H322M; details: Homo sapiens, Non-Small Cell Lung Cancer
COLO205 = assay: NCI60 tumour cell line screen, COLO205; details: Homo sapiens, COLO 205; COLO205, Colon Cancer
HL-60(TB) = assay: NCI60 tumour cell line screen, HL-60(TB); details: Homo sapiens, Leukemia
MOLT-4 = assay: NCI60 tumour cell line screen, MOLT-4; details: Homo sapiens; MOLT-4, Leukemia
MDA-MB-435 = assay: NCI60 tumour cell line screen, MDA-MB-435; details: Homo sapiens; MDA-MB-435, Melanoma
HCT-15 = assay: NCI60 tumour cell line screen, HCT-15; details: Homo sapiens; HCT-15, Colon Cancer
A498 = assay: NCI60 tumour cell line screen, A498; details: Homo sapiens; A498, Renal Cancer
SK-MEL-2 = assay: NCI60 tumour cell line screen, SK-MEL-2; details: Homo sapiens; SK-MEL-2, Melanoma
NCI-H522 = assay: NCI60 tumour cell line screen, NCI-H522; details: Homo sapiens; NCI-H522, Non-Small Cell Lung Cancer
SF-295 = assay: NCI60 tumour cell line screen, SF-295; details: Homo sapiens; SF-295, CNS Cancer
DU-145 = assay: NCI60 tumour cell line screen, DU-145; details: Homo sapiens; DU-145, Prostate Cancer
K-562 = assay: NCI60 tumour cell line screen, K-562; details: Homo sapiens, K562; K-562, Leukemia
OVCAR-3 = assay: NCI60 tumour cell line screen, OVCAR-3; details: Homo sapiens; OVCAR-3, Ovarian Cancer
IGROV1 = assay: NCI60 tumour cell line screen, IGROV1; details: Homo sapiens, IGROV-1; IGROV1, Ovarian Cancer
SF-268 = assay: NCI60 tumour cell line screen, SF-268; details: Homo sapiens; SF-268, CNS Cancer
UACC-257 = assay: NCI60 tumour cell line screen, UACC-257; details: Homo sapiens; UACC-257, Melanoma
CAKI-1 = assay: NCI60 tumour cell line screen, CAKI-1; details: Homo sapiens; CAKI-1, Renal Cancer
SK-MEL-5 = assay: NCI60 tumour cell line screen, SK-MEL-5; details: Homo sapiens; SK-MEL-5, Melanoma
A549/ATCC = assay: NCI60 tumour cell line screen, A549/ATCC; details: Homo sapiens, Non-Small Cell Lung Cancer
CCRF-CEM = assay: NCI60 tumour cell line screen, CCRF-CEM; details: Homo sapiens, Leukemia
MDA-MB-468 = assay: NCI60 tumour cell line screen, MDA-MB-468; details: Homo sapiens; MDA-MB-468, Breast Cancer
KM12 = assay: NCI60 tumour cell line screen, KM12; details: Homo sapiens; KM12, Colon Cancer
TK-10 = assay: NCI60 tumour cell line screen, TK-10; details: Homo sapiens; TK-10, Renal Cancer
HCT-116 = assay: NCI60 tumour cell line screen, HCT-116; details: Homo sapiens; HCT-116, Colon Cancer
BT-549 = assay: NCI60 tumour cell line screen, BT-549; details: Homo sapiens; BT-549, Breast Cancer
ACHN = assay: NCI60 tumour cell line screen, ACHN; details: Homo sapiens, Renal Cancer
OVCAR-8 = assay: NCI60 tumour cell line screen, OVCAR-8; details: Homo sapiens; OVCAR-8, Ovarian Cancer
NCI-H226 = assay: NCI60 tumour cell line screen, NCI-H226; details: Homo sapiens; NCI-H226, Non-Small Cell Lung Cancer
SNB-19 = assay: NCI60 tumour cell line screen, SNB-19; details: Homo sapiens; SNB-19, CNS Cancer
NCI/ADR-RES = assay: NCI60 tumour cell line screen, NCI/ADR-RES; details: Homo sapiens, Ovarian Cancer
SR = assay: NCI60 tumour cell line screen, SR; details: Homo sapiens, Leukemia
MCF7 = assay: NCI60 tumour cell line screen, MCF7; details: Homo sapiens; MCF7, Breast Cancer
SNB-75 = assay: NCI60 tumour cell line screen, SNB-75; details: Homo sapiens; SNB-75, CNS Cancer
T-47D = assay: NCI60 tumour cell line screen, T-47D; details: Homo sapiens, T47D, Breast Cancer
SN12C = assay: NCI60 tumour cell line screen, SN12C; details: Homo sapiens, Renal Cancer
RPMI-8226 = assay: NCI60 tumour cell line screen, RPMI-8226; details: Homo sapiens; RPMI-8226, Leukemia
786-0 = assay: NCI60 tumour cell line screen, 786-0; details: Homo sapiens; 786-0, Renal Cancer
NCI-H23 = assay: NCI60 tumour cell line screen, NCI-H23; details: Homo sapiens; NCI-H23, Non-Small Cell Lung Cancer
UO-31 = assay: NCI60 tumour cell line screen, UO-31; details: Homo sapiens; UO-31, Renal Cancer
U251 = assay: NCI60 tumour cell line screen, U251; details: Homo sapiens, U-251; U251, CNS Cancer
HCC-2998 = assay: NCI60 tumour cell line screen, HCC-2998; details: Homo sapiens; HCC-2998, Colon Cancer
HT29 = assay: NCI60 tumour cell line screen, HT29; details: Homo sapiens, HT-29; HT29, Colon Cancer
OVCAR-4 = assay: NCI60 tumour cell line screen, OVCAR-4; details: Homo sapiens; OVCAR-4, Ovarian Cancer

## O=C(CCCCCOc1ccc(Nc2nc(NC3CCCCC3)c3nc[nH]c3n2)cc1)NO [Example 3, 6-(4-(6-(cyclohexylamino)-9H-purin-2-ylamino)phenoxy)-N-hydroxyhexanamide]
NCI-H460
  GI50: 2040 nM
NCI-H322M
  GI50: 3000 nM
COLO205
  GI50: 1260 nM
HL-60(TB)
  GI50: 2950 nM
MOLT-4
  GI50: 1780 nM
MDA-MB-435
  GI50: 2460 nM
HCT-15
  GI50: 4300 nM
A498
  GI50: 195 nM
SK-MEL-2
  GI50: 2930 nM
NCI-H522
  GI50: 2720 nM
SF-295
  GI50: 2350 nM
DU-145
  GI50: 2510 nM
K-562
  GI50: 2030 nM
OVCAR-3
  GI50: 2170 nM
IGROV1
  GI50: 2240 nM
SF-268
  GI50: 3830 nM
UACC-257
  GI50: 2940 nM
CAKI-1
  GI50: 4680 nM
SK-MEL-5
  GI50: 2820 nM
A549/ATCC
  GI50: 2300 nM
CCRF-CEM
  GI50: 667 nM
MDA-MB-468
  GI50: 2400 nM
KM12
  GI50: 1740 nM
TK-10
  GI50: 2680 nM
HCT-116
  GI50: 1450 nM
BT-549
  GI50: 5510 nM
ACHN
  GI50: 3570 nM
OVCAR-8
  GI50: 2800 nM
NCI-H226
  GI50: 2880 nM
SNB-19
  GI50: 5960 nM
NCI/ADR-RES
  GI50: 13500 nM
SR
  GI50: 669 nM
MCF7
  GI50: 1460 nM
SNB-75
  GI50: 1690 nM
T-47D
  GI50: 2330 nM
SN12C
  GI50: 3230 nM
RPMI-8226
  GI50: 2810 nM
786-0
  GI50: 4610 nM
NCI-H23
  GI50: 4730 nM
UO-31
  GI50: 3520 nM
U251
  GI50: 1960 nM
HCC-2998
  GI50: 3580 nM
HT29
  GI50: 2540 nM
OVCAR-4
  GI50: 3820 nM
